Laboratory results published in patent US7786141B2 (Vertex Pharmaceuticals Incorporated, priority 2004, dated 2010).
Read-outs that look alike come from different tables or passages of the source.

Key:
M4 muscarinic receptor = biological target: T1, M4 muscarinic receptor (Homo sapiens, UniProt P08173); assay: Functional mobilization of intracellular calcium (FLIPR) in M4-CHO cells; format: cell-based
T1 construct: expressed in transfected cells; host or cells: CHO (M4-CHO)
T1 sequence (P08173 1-479): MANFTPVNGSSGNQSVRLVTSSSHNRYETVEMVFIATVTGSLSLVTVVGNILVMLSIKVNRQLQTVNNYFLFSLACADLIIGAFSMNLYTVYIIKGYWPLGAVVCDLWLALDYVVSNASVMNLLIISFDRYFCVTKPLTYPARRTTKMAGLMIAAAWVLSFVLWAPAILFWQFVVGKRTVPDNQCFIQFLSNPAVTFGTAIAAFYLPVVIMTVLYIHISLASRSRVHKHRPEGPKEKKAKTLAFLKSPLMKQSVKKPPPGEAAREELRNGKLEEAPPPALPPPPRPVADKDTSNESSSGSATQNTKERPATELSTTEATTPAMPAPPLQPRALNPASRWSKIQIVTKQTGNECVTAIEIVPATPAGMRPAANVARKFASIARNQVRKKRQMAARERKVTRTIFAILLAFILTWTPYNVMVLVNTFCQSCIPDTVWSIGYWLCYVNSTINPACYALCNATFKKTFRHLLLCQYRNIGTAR
In short: (§1)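 CHO cells stably expressing human M1 or M4 receptor were loaded with Fluo-3 AM (or Calcium 3 dye) in Hepes-buffered saline, pH 7.4, with 1 mM probenecid, 0.5% final DMSO. Agonist mode: compound added directly; antagonist mode: 15 min preincubation before carbachol at EC80. FLIPR fluorescence recorded 60 sec.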

M1 muscarinic receptor = biological target: T2, M1 muscarinic receptor (Homo sapiens, UniProt P11229); assay: Functional mobilization of intracellular calcium (FLIPR) in M1-CHO cells; format: cell-based
T2 construct: expressed in transfected cells; host or cells: CHO (M1-CHO)
T2 sequence (P11229 1-460): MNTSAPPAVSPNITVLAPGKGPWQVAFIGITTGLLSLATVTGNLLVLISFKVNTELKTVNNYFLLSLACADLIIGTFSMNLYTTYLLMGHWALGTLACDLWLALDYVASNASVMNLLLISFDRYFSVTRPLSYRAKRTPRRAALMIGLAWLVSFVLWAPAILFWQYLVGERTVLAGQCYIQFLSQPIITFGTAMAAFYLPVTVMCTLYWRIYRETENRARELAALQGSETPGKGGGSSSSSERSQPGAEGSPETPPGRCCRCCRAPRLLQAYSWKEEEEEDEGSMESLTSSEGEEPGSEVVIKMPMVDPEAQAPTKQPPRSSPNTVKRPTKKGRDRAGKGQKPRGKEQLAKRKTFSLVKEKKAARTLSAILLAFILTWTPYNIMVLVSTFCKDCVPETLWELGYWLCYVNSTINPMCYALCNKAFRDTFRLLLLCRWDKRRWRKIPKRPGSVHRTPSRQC
In short: as §1

[1] = Table 4, 100% efficacy is the maximum response obtained with the Carbachol control
[2] = Table 4, modulating M4 receptor
[3] = Table 4, modulating M1 receptor
[4] = M4 receptor, calcium mobilization
[5] = M4 receptor, calcium mobilization, read-out: M4 Efficacy
[6] = M1 receptor, calcium mobilization
[7] = M1 receptor, calcium mobilization, read-out: M1 Efficacy
[8] = M4-CHO cells, calcium mobilization (FLIPR)
[9] = M4-CHO cells, calcium mobilization (FLIPR), read-out: M4 Efficacy
[10] = M1-CHO cells, calcium mobilization (FLIPR)
[11] = M1-CHO cells, calcium mobilization (FLIPR), read-out: M1 Efficacy

| SMILES | Emax (M4 muscarinic receptor; [1]) [%] | M4 Activity (M4 muscarinic receptor; [2]) | Emax (M1 muscarinic receptor; [1]) [%] | M1 Activity (M1 muscarinic receptor; [3]) | M4 Activity (M4 muscarinic receptor; [4]) | Emax (M4 muscarinic receptor; [5]) [%] | M1 Activity (M1 muscarinic receptor; [6]) | Emax (M1 muscarinic receptor; [7]) [%] | also measured |
| --- | --- | --- | --- | --- | --- | --- | --- | --- | --- |
| Cc1ccc2c(c1)C1(CCN(C3CC4CCC3C4)CC1)CN2C(=O)c1ccco1 (centres unmarked) [compound 597] | < 25 | x (activity was measured to be greater than 5.0 μM) | 25 to 100 | x (activity was measured to be greater than 5.0 μM) | – | – | – | – | – |
| CC(=O)NC1CC2(CCN(CC3CC4C=CC3C4)CC2)c2ccccc21 (centres unmarked) [compound 180] | – | – | – | – | xxx (activity was measured to be less than 0.1 μM) | 65 to 85 | xxx (activity was measured to be less than 0.1 μM) | 65 to 85 | – |
| Fc1ccc2c(c1)C1(CCN(C3CC4CCC3C4)CC1)CN2 (centres unmarked) [compound 416] | – | – | – | – | – | – | – | – | EC50 (M4 muscarinic receptor; [8]): > 1 µM; Emax (M4 muscarinic receptor; [9]): < 65%; EC50 (M1 muscarinic receptor; [10]): > 1 µM; Emax (M1 muscarinic receptor; [11]): < 65% |
| CC(=O)N[C@H]1CC2(CCN(C3CCC(C(C)C)CC3)CC2)c2ccccc21 (some centres unmarked) [compound 759] | < 25 | x (activity was measured to be greater than 5.0 μM) | < 25 | x (activity was measured to be greater than 5.0 μM) | – | – | – | – | – |
| CC(=O)N[C@H]1CC2(CCN(C3CC4CCC(C4)C3)CC2)c2ccccc21 (some centres unmarked) [compound 337] | – | – | – | – | x (activity was measured to be greater than 1.0 μM) | < 65 | x (activity was measured to be greater than 1.0 μM) | < 65 | – |
| CC(=O)N[C@H]1CC2(CCN(CC(=O)N3C[C@@H](C)O[C@@H](C)C3)CC2)c2ccccc21 [compound 782] | < 25 | x (activity was measured to be greater than 5.0 μM) | < 25 | x (activity was measured to be greater than 5.0 μM) | – | – | – | – | – |
| CC#CCOC(=O)N1CCC(N2CCC3(CC2)CN(C(C)=O)c2cccc(C)c23)CC1 [compound 526] | < 25 | x (activity was measured to be greater than 5.0 μM) | 25 to 100 | xxx (activity was measured to be less than 2.0 μM) | – | – | – | – | – |
| CC(C)OC(=O)N1C2CCC1CC(N1CCC3(CC1)CN(C(=O)OC1CCC1)c1ccc(F)cc13)C2 (centres unmarked) [compound 166] | – | – | – | – | x (activity was measured to be greater than 1.0 μM) | > 85 | xxx (activity was measured to be less than 0.1 μM) | > 85 | – |
| COCCOC(=O)N1CC2(CCN(C3CC4CCC(C3)N4C(=O)O[C@H]3CCOC3)CC2)c2cc(F)ccc21 (some centres unmarked) [compound 80] | – | – | – | – | xx (activity was measured to be between 0.1 μM and 1.0 μM) | < 65 | xx (activity was measured to be between 0.1 μM and 1.0 μM) | < 65 | – |
| CC(=O)N[C@H]1CC2(CCN(C3CCN(c4cccc(F)n4)CC3)CC2)c2ccccc21 [compound 708] | 25 to 100 | xxx (activity was measured to be less than 2.0 μM) | 25 to 100 | xxx (activity was measured to be less than 2.0 μM) | – | – | – | – | – |
| CCON=C1CCC(N2CCC3(CC2)CN(C(C)=O)c2ccc(F)cc23)CC1 (centres unmarked) [compound 86] | – | – | – | – | x (activity was measured to be greater than 1.0 μM) | < 65 | xxx (activity was measured to be less than 0.1 μM) | 65 to 85 | – |
| CC(=O)N[C@@H]1CCC2(CCN(CC3CC4C=CC3C4)CC2)c2ccccc21 (some centres unmarked) [compound 486] | 25 to 100 | xxx (activity was measured to be less than 2.0 μM) | < 25 | x (activity was measured to be greater than 5.0 μM) | – | – | – | – | – |
| CC(=O)N1CC2(CCN(CC3CCN(C(=O)O[C@@H]4CCOC4)CC3)CC2)c2cc(F)ccc21 [compound 14] | – | – | – | – | xxx (activity was measured to be less than 0.1 μM) | > 85 | xxx (activity was measured to be less than 0.1 μM) | 65 to 85 | – |
| CC(=O)NC1CC2(CCN(C3CCCCC3)CC2)c2ccccc21 (centres unmarked) [compound 2] | – | – | – | – | x (activity was measured to be greater than 1.0 μM) | < 65 | x (activity was measured to be greater than 1.0 μM) | < 65 | – |
| CC(=O)N1CC2(CCN(C3CCN(C(=O)O[C@H]4CCOC4)CC3)CC2)c2cc(F)ccc21 [compound 418] | – | – | – | – | – | – | – | – | EC50 (M4 muscarinic receptor; [8]): > 1 µM; Emax (M4 muscarinic receptor; [9]): < 65%; EC50 (M1 muscarinic receptor; [10]): > 1 µM; Emax (M1 muscarinic receptor; [11]): < 65% |
| CS(=O)(=O)N[C@H]1CCC2(CCN(C3CCCCCC3)CC2)c2ccccc21 [compound 723] | 25 to 100 | xxx (activity was measured to be less than 2.0 μM) | 25 to 100 | xxx (activity was measured to be less than 2.0 μM) | – | – | – | – | – |
| CC(=O)N1CC2(CCN(C3CCCCC3C)CC2)c2cc(F)ccc21 (centres unmarked) [compound 52] | – | – | – | – | xxx (activity was measured to be less than 0.1 μM) | 65 to 85 | xxx (activity was measured to be less than 0.1 μM) | > 85 | – |
| CCOC(=O)N1CCC(N2CCC3(CC2)CN(C(C)=O)c2ccc(-c4ccc(OC)cc4)cc23)CC1 [compound 193] | – | – | – | – | x (activity was measured to be greater than 1.0 μM) | < 65 | x (activity was measured to be greater than 1.0 μM) | < 65 | – |
| CCOC(=O)N1CCC(CN2CCC3(CC2)CN(C(C)=O)c2ccc(OC(F)(F)F)cc23)CC1 [compound 21] | – | – | – | – | x (activity was measured to be greater than 1.0 μM) | < 65 | xx (activity was measured to be between 0.1 μM and 1.0 μM) | < 65 | – |
| CCC#CCOC(=O)N1CC[C@@H](CN2CCC3(CC2)CN(C(C)=O)c2cccc(C)c23)C1 [compound 793] | 25 to 100 | xxx (activity was measured to be less than 2.0 μM) | 25 to 100 | xxx (activity was measured to be less than 2.0 μM) | – | – | – | – | – |
| CCOC(=O)N(C)[C@H]1CC2(CCN(C[C@H]3C[C@H]4CC[C@H]3C4)CC2)c2ccccc21 [compound 347] | – | – | – | – | xx (activity was measured to be between 0.1 μM and 1.0 μM) | > 85 | xxx (activity was measured to be less than 0.1 μM) | 65 to 85 | – |
| CN(C)C(=O)N1CC2(CCN(C3CCN(C(=O)OCC(F)F)CC3)CC2)c2cc(F)ccc21 [compound 885] | 25 to 100 | – | 25 to 100 | – | – | – | – | – | M4 Activity (M4 muscarinic receptor; Table 4, M4 receptor, calcium mobilization (FLIPR)): xxx (activity was measured to be less than 2.0 μM); M1 Activity (M1 muscarinic receptor; Table 4, M1 receptor, calcium mobilization (FLIPR)): xxx (activity was measured to be less than 2.0 μM) |
| CC(C)OC(=O)N1C2CCC1CC(N1CCC3(CC1)CN(C(=O)O[C@@H]1CCOC1)c1ccc(F)cc13)C2 (some centres unmarked) [compound 402] | – | – | – | – | – | – | – | – | EC50 (M4 muscarinic receptor; [8]): > 1 µM; Emax (M4 muscarinic receptor; [9]): < 65%; EC50 (M1 muscarinic receptor; [10]): 0.1 to 1 µM; Emax (M1 muscarinic receptor; [11]): 65 to 85% |
